Key:
ME-SFCs [1] = experiment: Long-term study: transient cytokine exposure of ME-SFCs, decidualization 25 days after final treatment (IGFBP-1 ELISA); format: cell-based, human; settings: for SFC decidualization capacity after transient exposure: FIG. 4A-4B
Procedure: (§1) In vitro exposure of ME-SFCs to inflammatory cytokines (e.g. TNFα) reduces decidualization capacity. […] After 24 hrs, culture supernatants were collected and IGFBP-1 protein levels were measured by ELISA. […] Twenty four hours later, the culture supernatants were collected and IGFBP-1 protein levels were measured by ELISA.

ME-SFCs [2] = experiment: Acute exposure of ME-SFCs to inflammatory cytokines, then cAMP decidualization (IGFBP-1 ELISA); format: cell-based, human; settings: TNFα 1 pg/ml-10 ng/ml; SFCs from a normal subject; 24 hours; cAMP 0.5 mM
Procedure: as §1

TNFα
cell viability (SFCs): not affected | persistence of decidualization defects (reduced IGFBP1 production) after removal from culture (ME-SFCs [1]; TNFα 0.1-1.0 ng/ml on days 0 and 5, decidualization with cAMP alone or cAMP and medroxyprogesterone): at least 25 days | SFC decidualization capacity after transient exposure (ME-SFCs [1]): persistent defects | decidualization capacity of SFCs (ME-SFCs [2]): dramatically reduces decidualization capacity

IL-1β: inflammatory cytokine
SFC decidualization capacity after transient exposure (ME-SFCs [1]): persistent defects

— patent publication US12146886B2, “Methods for detecting and treating endometriosis” (The Feinstein Institutes for Medical Research, priority 2018, dated 2024)
